Measurements from US5468742A, “8-vinyl- and 9-ethinyl-quinolone-carboxylic acids” (Bayer Aktiengesellschaft, priority 1991, dated 1995).
Values after ≈ are worked out from the molar mass of the structure shown. Like-named read-outs stand apart in the source and are kept apart here.

Tests used:
Assay in all cases: MIC, serial dilution on Iso-Sensitest agar
Format in all cases: cell-based
[1] = test system: Acinetobacter calcoaceticus 14068
Experimental: (§1) The minimum inhibitory concentrations (MIC) were determined on Iso-Sensitest agar (Oxoid) using the serial dilution method. For each test substance, a series of agar plates was prepared which contained concentrations of the active compound which decreased as the dilution was doubled. The agar plates were inoculated using a multipoint inoculator (Denley). The inocula used were overnight cultures of the pathogens which had previously been diluted to such an extent that each inoculation point contained approx. 10^4 colony-forming units. The inoculated agar plates were incubated at 37° C., and growth of the pathogens was determined after approx. 20 hours. The MIC value (μg/ml) indicates the lowest concentration of active compound where no growth was discernible to the naked eye.
(§2) The table below lists the MIC values of some of the compounds according to the invention compared with ciprofloxacin.

Micrococcus luteus 9341 = test system: Micrococcus luteus 9341
Experimental: as §1, §2

[2] = test system: Staphylococcus aureus ICB 25701
Experimental: as §1, §2

[3] = test system: Enterococcus faecalis 27101
Experimental: as §1, §2

E. coli Neumann = conditions: Escherichia coli
Experimental: as §1, §2

[4] = test system: Staphylococcus aureus 1756
Experimental: as §1, §2

[5] = test system: Enterococcus faecalis 9790
Experimental: as §1, §2

[6] = test system: Staphylococcus aureus 133
Experimental: as §1, §2

[7] = Acinetobacter calcoaceticus 14068, approx. 10^4 CFU per inoculation point, 37° C., approx. 20 hours, read-out: MIC
[8] = Micrococcus luteus 9341, approx. 10^4 CFU per inoculation point, 37° C., approx. 20 hours, read-out: MIC
[9] = ICB25701, Staphylococcus aureus ICB 25701, approx. 10^4 CFU per inoculation point, 37° C., approx. 20 hours, read-out: MIC
[10] = Enterococcus faecalis 27101, approx. 10^4 CFU per inoculation point, 37° C., approx. 20 hours, read-out: MIC
[11] = E. coli Neumann, approx. 10^4 CFU per inoculation point, 37° C., approx. 20 hours, read-out: MIC
[12] = Staphylococcus aureus 1756, approx. 10^4 CFU per inoculation point, 37° C., approx. 20 hours, read-out: MIC
[13] = Enterococcus faecalis 9790, approx. 10^4 CFU per inoculation point, 37° C., approx. 20 hours, read-out: MIC
[14] = Staphylococcus aureus 133, approx. 10^4 CFU per inoculation point, 37° C., approx. 20 hours, read-out: MIC

| SMILES | MIC [1, 7] | MIC (Micrococcus luteus 9341; [8]) | MIC [2, 9] | MIC [3, 10] | MIC (E. coli Neumann; [11]) | MIC [4, 12] | MIC [5, 13] | MIC [6, 14] | MIC ([1]; Acinetobacter calcoaceticus, 14068, 20 h) | MIC (Micrococcus luteus 9341; Micrococcus luteus, 9341, 20 h) | MIC ([2]; Staphylococcus aureus, ICB25701, 20 h) | MIC ([3]; Enterococcus faecalis, 27101, 20 h) | MIC (E. coli Neumann; 20 h) | MIC ([4]; Staphylococcus aureus, 1756, 20 h) | MIC ([5]; Enterococcus faecalis, 9790, 20 h) | MIC ([6]; Staphylococcus aureus, 133, 20 h) |
| --- | --- | --- | --- | --- | --- | --- | --- | --- | --- | --- | --- | --- | --- | --- | --- | --- |
| C#Cc1c(N2C[C@@H]3CCCN[C@@H]3C2)c(F)cc2c(=O)c(C(=O)O)cn(C3CC3)c12 (relative stereo) [Example 5, 1-cyclopropyl-7-(cis-2,8-diazabicyclo[4.3.0]non-8-yl)-8-ethinyl-6-fluoro-1,4-dihydro-4-oxo-3-quinolinecarboxylic acid] | 0.03 µg/mL (≈ 0.0759 µM) | 0.5 µg/mL (≈ 1.26 µM) | 1 µg/mL (≈ 2.53 µM) | 0.13 µg/mL (≈ 0.329 µM) | 0.02 µg/mL (≈ 0.0506 µM) | 0.03 µg/mL (≈ 0.0759 µM) | 0.13 µg/mL (≈ 0.329 µM) | 0.13 µg/mL (≈ 0.329 µM) | – | – | – | – | – | – | – | – |
| O=C(O)c1cn(C2CC2)c2cc(N3CCNCC3)c(F)cc2c1=O [Ciprofloxacin, ciprofloxacin, reference compound] | – | – | – | – | – | – | – | – | 0.25 µg/mL (≈ 0.754 µM) | 2 µg/mL (≈ 6.04 µM) | 16 µg/mL (≈ 48.3 µM) | 0.5 µg/mL (≈ 1.51 µM) | 0.02 µg/mL (≈ 0.0604 µM) | 0.25 µg/mL (≈ 0.754 µM) | 0.5 µg/mL (≈ 1.51 µM) | 0.25 µg/mL (≈ 0.754 µM) |
| C#Cc1c(N2CCN(C)CC2)c(F)cc2c(=O)c(C(=O)O)cn(C3CC3)c12 [Example 1, 1-cyclopropyl-8-ethinyl-6-fluoro-1,4-dihydro-7-(4-methyl-1-piperazinyl)-4-oxo-3-quinolinecarboxylic acid] | – | – | 4 µg/mL (≈ 10.8 µM) | 0.25 µg/mL (≈ 0.677 µM) | 0.02 µg/mL (≈ 0.0541 µM) | 0.13 µg/mL (≈ 0.352 µM) | 0.25 µg/mL (≈ 0.677 µM) | 0.13 µg/mL (≈ 0.352 µM) | – | – | – | – | – | – | – | – |
| C#Cc1c(N2CC3NCCOC3C2)c(F)cc2c(=O)c(C(=O)O)cn(C3CC3)c12 (centres unmarked) [Example 7, 1-cyclopropyl-8-ethinyl-6-fluoro-1,4-dihydro-7-(2-oxa-5,8-diazabicyclo[4.3.0]non-8-yl)-4-oxo-3-quinolinecarboxylic acid] | 0.25 µg/mL (≈ 0.629 µM) | 1 µg/mL (≈ 2.52 µM) | 1 µg/mL (≈ 2.52 µM) | 0.25 µg/mL (≈ 0.629 µM) | 0.13 µg/mL (≈ 0.327 µM) | 0.06 µg/mL (≈ 0.151 µM) | 0.25 µg/mL (≈ 0.629 µM) | 0.06 µg/mL (≈ 0.151 µM) | – | – | – | – | – | – | – | – |
| CC#Cc1c(N2CC3NCCOC3C2)c(F)cc2c(=O)c(C(=O)O)cn(C3CC3)c12 (centres unmarked) [Example 8, 1-cyclopropyl-6-fluoro-1,4-dihydro-7-(2-oxa-5,8-diazabicyclo[4.3.0]non-8-yl)-4-oxo-8-(propin-1-yl)-3-quinolinecarboxylic acid] | 0.5 µg/mL (≈ 1.22 µM) | 2 µg/mL (≈ 4.86 µM) | 4 µg/mL (≈ 9.72 µM) | 0.5 µg/mL (≈ 1.22 µM) | 0.25 µg/mL (≈ 0.608 µM) | 0.13 µg/mL (≈ 0.316 µM) | 1 µg/mL (≈ 2.43 µM) | 0.13 µg/mL (≈ 0.316 µM) | – | – | – | – | – | – | – | – |
| C#Cc1c(N2CC3CC=CC(NC)C3C2)c(F)cc2c(=O)c(C(=O)O)cn(C3CC3)c12 (centres unmarked) [Example 13, 1-cyclopropyl-8-ethinyl-6-fluoro-1,4-dihydro-7-(4-methylamino-1,3,3a,4,7,7a-hexahydroisoindol-2-yl)-4-oxo-3-quinolinecarboxylic acid] | 0.13 µg/mL (≈ 0.308 µM) | 0.25 µg/mL (≈ 0.593 µM) | 0.25 µg/mL (≈ 0.593 µM) | 0.13 µg/mL (≈ 0.308 µM) | 0.13 µg/mL (≈ 0.308 µM) | 0.06 µg/mL (≈ 0.142 µM) | 0.13 µg/mL (≈ 0.308 µM) | 0.06 µg/mL (≈ 0.142 µM) | – | – | – | – | – | – | – | – |
| C=C(C)C#Cc1c(N2CCN(C)CC2)c(F)cc2c(=O)c(C(=O)O)cn(C3CC3)c12 [Example 14, 1-cyclopropyl-6-fluoro-1,4-dihydro-8-(3-methyl-but-3-en-1-inyl)-7-(4-methyl-1-piperazinyl)-4-oxo-3-quinolinecarboxylic acid] | 0.03 µg/mL (≈ 0.0733 µM) | 8 µg/mL (≈ 19.5 µM) | 32 µg/mL (≈ 78.2 µM) | 1 µg/mL (≈ 2.44 µM) | 0.02 µg/mL (≈ 0.0488 µM) | 0.02 µg/mL (≈ 0.0488 µM) | 1 µg/mL (≈ 2.44 µM) | 0.02 µg/mL (≈ 0.0488 µM) | – | – | – | – | – | – | – | – |
| C=C(Cl)c1c(N2CCN(C)CC2)c(F)cc2c(=O)c(C(=O)O)cn(C3CC3)c12.Cl [Example 17, 8-(1-chlorovinyl)-1-cyclopropyl-6-fluoro-1,4-dihydro-7-(4-methyl-1-piperazinyl)-4-oxo-3-quinolinecarboxylic acid hydrochloride] | 0.03 µg/mL | 1 µg/mL | 4 µg/mL | 0.25 µg/mL | 0.03 µg/mL | 0.13 µg/mL | 0.25 µg/mL | 0.13 µg/mL | – | – | – | – | – | – | – | – |
